The values below come from paper PMC3278557 (Pharmacological Research, 2011).

The assay concerns cultured neonatal rat cardiomyocytes. Kind of assay: Effects on hypoxic cardiomyocytes. It counts as cell-based.

The structures appear in SMILES notation.

For `CNC(=O)[C@H]1O[C@@H](n2cnc3c(NCc4cccc(I)c4)nc(Cl)nc32)[C@H](O)[C@@H]1O` [Cl-IB-MECA, 2-chloro-N^6-(3-iodobenzyl)-5′-N-methylcarboxamidoadenosine], the “anti-hypoxic protective potency (concentration range)” value was around 100 nM. For the same compound, the “cardioprotection of hypoxic cardiomyocytes” value (100 nM) was “provided cardioprotection”.
On to `CCCOC(=O)c1c(-c2ccccc2)nc(CC)c(C(=O)SCC)c1CCC` [MRS1523, 5-propyl-2-ethyl-4-propyl-3-(ethylsulfanylcarbonyl)-6-phenylpyridine-5-carboxylate], for which, where the note is “antagonist at 1 μM, LDH release or PI staining”, the “antagonism of the protective effect of 6 (1 nM)” value is “completely reversed”.
